# Source: PubChem BioAssay (NCI)
#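 Five compound concentrations were applied to cells in 96-well plates for 48 hours; endpoints were derived by simple linear interpolation of the resulting dose-response curve. GI50 marks 50% less growth. TGI marks complete inhibition of growth.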
# Legend:
# Experiment in all cases: growth of human tumour cells (NCI), 48 h
# [1] = tested on: SK-MEL-2 melanoma
# [2] = tested on: MALME-3M melanoma
# [3] = tested on: OVCAR-5 ovarian
# [4] = tested on: HT29 colon
# [5] = tested on: NCI-H460 lung
# [6] = tested on: NCI-H522 lung
# [7] = tested on: HOP-62 NSCLC
# [8] = tested on: UACC-257 melanoma
# [9] = tested on: HOP-92 NSCLC
# [10] = tested on: HCT-116 colon
SMILES,TGI [1],TGI [2],TGI [3],TGI [4],TGI [5],TGI [6],TGI [7],TGI [8],TGI [9],TGI [10],GI50 [1],GI50 [2],GI50 [3],GI50 [4],GI50 [5],GI50 [6],GI50 [7],GI50 [8],GI50 [10],GI50 [9]
CCCCCCCCC/C=C1\CCC(CN(C)C)C1=O (stereo not drawn),6.42 µM,12.6 µM,28 µM,3.16 µM,12.5 µM,4.78 µM,4.32 µM,3.52 µM,4.39 µM,3.67 µM,,,,,,,,,,
Oc1c(Cl)c(Cl)c(O)c2c1CCCC2,45.4 µM,9.48 µM,,44.6 µM,31.9 µM,,51.6 µM,30.5 µM,4.85 µM,2.83 µM,,,,,,,,,,
COc1cccc(NC(=O)CC(=O)N2N=C(N3c4ccccc4Sc4ccccc43)CC2c2ccccc2)c1 (stereo not drawn),,> 100 µM,> 100 µM,> 100 µM,> 100 µM,,> 100 µM,> 100 µM,> 100 µM,> 100 µM,,,,,,,,,,
O=C(O)C(CS)NCc1c2ccccc2nc2ccccc12 (stereo not drawn),> 100 µM,> 100 µM,> 100 µM,> 100 µM,> 100 µM,88 µM,,> 100 µM,88.9 µM,> 100 µM,,,,,,,,,,
COc1ccc(N(/C=C/C(=O)C(F)(F)F)CC(=O)c2ccc(F)cc2)cc1,67.2 µM,41.4 µM,93.3 µM,> 100 µM,50 µM,36.9 µM,44.9 µM,64.8 µM,,27.9 µM,31.6 µM,16.5 µM,34.1 µM,46.2 µM,23.5 µM,18.7 µM,20 µM,23.7 µM,14.7 µM,
CCOC(=O)C1CCCCN1C(=O)c1ccc(Nc2cnc3cc(C(F)(F)F)ccc3n2)cc1 (stereo not drawn),67.3 µM,22.1 µM,23 µM,,30.4 µM,> 100 µM,32.5 µM,29.8 µM,5.93 µM,28.1 µM,23.2 µM,6.89 µM,10.3 µM,,13.3 µM,30.4 µM,17.6 µM,15.7 µM,14.9 µM,
Cc1nn(-c2ccc([N+](=O)[O-])cc2)c2ncnc(N/N=C/c3ccccc3O)c12,> 45 µM,3.95 µM,> 100 µM,> 100 µM,1.46 µM,7.56 µM,3.29 µM,8.56 µM,4.63 µM,,1.57 µM,0.62 µM,2.04 µM,1.3 µM,0.34 µM,0.365 µM,0.397 µM,1.47 µM,,0.806 µM
N#Cc1nc2c(S(=O)(=O)c3ccc(Cl)cc3)c(N)n(CCCN3CCOCC3)c2nc1C#N,24.5 µM,18.1 µM,54.9 µM,> 100 µM,40.9 µM,,51.3 µM,22.7 µM,30.2 µM,13.6 µM,6.77 µM,3.55 µM,20.8 µM,5.96 µM,15.8 µM,,15.2 µM,5.91 µM,3.11 µM,2.72 µM
[O-]c1ccccc1/C=N/C(/N=C/c1ccccc1[O-])c1ccccc1O.[O-]c1ccccc1/C=N/C(/N=C/c1ccccc1[O-])c1ccccc1O.[Zr+4],,,> 100 µM,> 100 µM,> 100 µM,65.3 µM,> 100 µM,> 100 µM,,> 100 µM,,,30 µM,42 µM,34 µM,10.9 µM,34.2 µM,33.4 µM,40.8 µM,
CC(C)(c1ccccc1)c1ccc(Oc2ccc(C#N)c(C#N)c2)cc1,> 100 µM,> 100 µM,> 100 µM,,> 100 µM,84.8 µM,> 100 µM,,> 100 µM,> 100 µM,> 100 µM,> 100 µM,> 100 µM,,> 100 µM,16.9 µM,> 100 µM,,,
CCc1ccccc1NC(=O)/C(N=O)=C(/C)O,> 100 µM,> 100 µM,,> 100 µM,> 100 µM,> 100 µM,> 100 µM,> 100 µM,,> 100 µM,,,,,,,,,,
O=S(=O)(/C=C/CS(=O)(=O)c1ccccc1)c1ccccc1,29.3 µM,> 100 µM,> 100 µM,> 100 µM,63.9 µM,,46.2 µM,87 µM,> 100 µM,57.1 µM,,,,,,,,,,
COc1ccc(C(=O)/C=C/c2cccc(Nc3ccnc4cc(Cl)ccc34)c2)cc1,,6.3 µM,> 100 µM,> 100 µM,> 100 µM,> 100 µM,3.99 µM,,7.08 µM,12.2 µM,,1.79 µM,2.6 µM,1.64 µM,2.23 µM,1.88 µM,1.44 µM,,0.844 µM,1.09 µM
CN(C)C(=O)c1cnc2oc3ccc(O)cc3c2c1-c1ccccc1,> 25 µM,,> 25 µM,,> 25 µM,> 25 µM,> 25 µM,> 25 µM,> 25 µM,> 25 µM,> 25 µM,,6.94 µM,,16.2 µM,> 25 µM,> 25 µM,> 25 µM,> 25 µM,> 25 µM
Cc1nn(-c2ccc(Cl)cc2)c2nc3c(nc12)C(=O)C(=O)c1ccccc1-3,16.2 µM,3.86 µM,> 100 µM,3.99 µM,,6.57 µM,30.4 µM,11.9 µM,30.8 µM,32.8 µM,4.71 µM,1.43 µM,12 µM,2.01 µM,,2.96 µM,9.71 µM,3.24 µM,7.42 µM,0.18 µM
O=S(=O)(c1cccc2c(I)cccc12)N1CCCNCC1,33.6 µM,,33.5 µM,55.3 µM,> 100 µM,30.3 µM,34.4 µM,43.2 µM,32.5 µM,32.6 µM,16.7 µM,,16 µM,20.8 µM,33.2 µM,14.8 µM,16.5 µM,23.1 µM,15.4 µM,14.1 µM
CC1=C(C(=O)N(C)c2ccc(Cl)c(C(=O)OC(C)C)c2)SCCO1,> 100 µM,> 100 µM,> 100 µM,> 100 µM,> 100 µM,> 100 µM,,> 100 µM,> 100 µM,> 100 µM,,,,,,,,,,

SMILES,TGI [1],TGI [2],TGI [3],TGI [4],TGI [5],TGI [6],TGI [7],TGI [8],TGI [9],TGI [10],GI50 [1],GI50 [2],GI50 [3],GI50 [4],GI50 [5],GI50 [6],GI50 [7],GI50 [8],GI50 [10],GI50 [9]
CC(C)CCNCC(O)Cn1c2ccccc2c2ccccc21 (stereo not drawn),,23 µM,25.7 µM,10.6 µM,13.7 µM,27.7 µM,29.7 µM,17.2 µM,18.1 µM,24.1 µM,,7.17 µM,12.4 µM,3.42 µM,3.64 µM,13.6 µM,15.4 µM,5 µM,9.47 µM,2.71 µM
O=[N+]([O-])c1cc(Cl)cnc1Br,,49.7 µM,9.48 µM,8.51 µM,15.2 µM,,35.1 µM,22.6 µM,25.4 µM,24 µM,,,,,,,,,,
Nc1ccccc1C#C/C=C\C#Cc1cccc(O)c1,,> 43.4 µM,23 µM,41.7 µM,> 34.2 µM,11.5 µM,12.1 µM,23.4 µM,> 51.2 µM,12.2 µM,,11.3 µM,7.64 µM,11.4 µM,3.19 µM,1.09 µM,2.63 µM,10.2 µM,2.73 µM,11.9 µM
CC(=O)[CH-]C(=O)c1ccccc1.CC(=O)[CH-]C(=O)c1ccccc1.CC(=O)[CH-]C(=O)c1ccccc1.[In+3],34.2 µM,84.1 µM,> 100 µM,> 100 µM,> 100 µM,59.8 µM,,> 100 µM,49.8 µM,> 100 µM,13 µM,25.2 µM,42.7 µM,31.9 µM,16.6 µM,21.8 µM,,46.2 µM,9.32 µM,17.8 µM
CCN(CC)c1oc(N(CC)CC)c(C(=O)Nc2ccccn2)c(=O)c1C(C)=O,> 100 µM,> 100 µM,> 100 µM,> 100 µM,> 100 µM,> 100 µM,> 100 µM,,> 100 µM,> 100 µM,,,,,,,,,,
CC1(C)CC2CC(CC(C)(C)C2=O)C1=O,> 100 µM,> 100 µM,> 100 µM,> 100 µM,> 100 µM,,> 100 µM,> 100 µM,> 100 µM,> 100 µM,,,,,,,,,,
C[C@]12CCC(=O)CC1CCCC2=O (stereo partly drawn),> 100 µM,> 100 µM,,> 100 µM,> 100 µM,> 100 µM,> 100 µM,> 100 µM,> 100 µM,> 100 µM,,,,,,,,,,
CCCN(CCC)C(=O)C(=O)c1c(N)[nH]n(-c2ccccc2)c1=O,> 100 µM,> 100 µM,> 100 µM,> 100 µM,> 100 µM,> 100 µM,,> 100 µM,> 100 µM,> 100 µM,,,,,,,,,,
CCOC(=O)c1cc2c(n1Cc1cc(OC)c(OC)c(OC)c1)-c1oncc1CCC2,0.545 µM,> 52.3 µM,> 100 µM,2.67 µM,13.7 µM,0.073 µM,37.2 µM,28.5 µM,,> 100 µM,0.0841 µM,0.061 µM,0.481 µM,0.138 µM,0.284 µM,0.0208 µM,0.447 µM,0.177 µM,0.235 µM,
CNC(=O)OCc1c2ccncc2c(C)c2c1[nH]c1ccc(OC)cc12,0.509 µM,1.87 µM,0.808 µM,> 100 µM,1.3 µM,1.13 µM,1.07 µM,,0.618 µM,0.777 µM,,,,,,,,,,
COc1cnc2c(c1)C(=O)c1c-2n(CCCNC2=NCCS2)c(=O)c2cc(Cl)ccc12,34.3 µM,,3.45 µM,2.23 µM,1.16 µM,,1.51 µM,3.11 µM,,2.19 µM,18.3 µM,,1.82 µM,0.121 µM,0.0299 µM,,0.0425 µM,1.53 µM,0.352 µM,
O=C(O)c1nc(-c2ccc(Cl)c(Cl)c2)nc2ccc(Cl)cc12,> 100 µM,> 100 µM,> 100 µM,> 100 µM,> 100 µM,,> 100 µM,> 100 µM,,> 100 µM,,,,,,,,,,
CC(=O)[O][Sn]([CH2]c1ccccc1)([CH2]c1ccccc1)[CH2]c1ccccc1,> 10 µM,> 6.05 µM,> 10 µM,> 8.87 µM,> 10 µM,> 7.23 µM,> 6.75 µM,> 10 µM,,> 10 µM,> 8.34 µM,> 4.38 µM,> 10 µM,4.72 µM,> 10 µM,> 3.86 µM,> 5.55 µM,> 10 µM,> 9.18 µM,
COC(=O)c1cc2ccccc2c2c3c(ccc12)OCO3,334 µM,483 µM,> 1000 µM,> 1000 µM,> 1000 µM,,91.7 µM,> 1000 µM,73 µM,> 1000 µM,49.9 µM,76.6 µM,223 µM,33.7 µM,290 µM,,26.2 µM,199 µM,194 µM,17.4 µM
Cn1cc(-c2csc(-c3cn(CCCN4CCCCC4)c4ccccc34)n2)c2cccnc21,38.5 µM,3.19 µM,3.13 µM,3.62 µM,4 µM,41 µM,,3.65 µM,35.2 µM,,18.8 µM,1.61 µM,1.63 µM,1.89 µM,2.04 µM,17.8 µM,,1.96 µM,,13.3 µM
CCc1cccc(C)c1NC(=O)C1=C(C)NC(C)=C(C(=O)Nc2c(C)cccc2CC)C1c1ccc2c(c1)OCO2,29.6 µM,30.5 µM,44.5 µM,39.4 µM,45.5 µM,30.1 µM,36.9 µM,46.3 µM,59.3 µM,,,,,,,,,,,
CCOC(=O)/C(O)=C(/C(=O)OC)c1ccc(Cl)cc1,> 100 µM,> 100 µM,> 100 µM,> 100 µM,> 100 µM,,> 100 µM,> 100 µM,,,,,,,,,,,,
